Experiments:
[1] = target: PI3-Kα (Mus musculus (Mouse), UniProt P42337); experiment: PI3-Kα Biochemical Assay (fluorescence polarization kinase assay)
Summary of the method: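 Co-expressed mouse p110/p85 PI3-Kα (4 nM stock) acting on PI(4,5)P2 (60 μM stock) with ATP/MgCl2 in HEPES pH 7.4 buffer, 35 min at room temperature, then EDTA stop. PI(3,4,5)P3 product detected by displacement of TAMRA-PIP3 from Grip1 PH domain (FP, 535/580 nm). IC50 from sigmoidal fit of % inhibition.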

[2] = test system: PI3-K in BT20 cells (phosphorylation of AKT at serine 473); experiment: PI3-Kα Cellular Assay (AKT Ser473 phosphorylation ELISA in BT20 cells); assay type: cell-based, human; conditions: Homo sapiens, BT-20, pAKT Ser473 ELISA, 1 hour incubation
Summary of the method: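 Cells seeded overnight in 0.5% FBS, then exposed 1 h at 37 °C to an 11-concentration 1:3 dilution series, in duplicate.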

Chain of PI3-Kα (P42337 whole entry, the tested form may be a part): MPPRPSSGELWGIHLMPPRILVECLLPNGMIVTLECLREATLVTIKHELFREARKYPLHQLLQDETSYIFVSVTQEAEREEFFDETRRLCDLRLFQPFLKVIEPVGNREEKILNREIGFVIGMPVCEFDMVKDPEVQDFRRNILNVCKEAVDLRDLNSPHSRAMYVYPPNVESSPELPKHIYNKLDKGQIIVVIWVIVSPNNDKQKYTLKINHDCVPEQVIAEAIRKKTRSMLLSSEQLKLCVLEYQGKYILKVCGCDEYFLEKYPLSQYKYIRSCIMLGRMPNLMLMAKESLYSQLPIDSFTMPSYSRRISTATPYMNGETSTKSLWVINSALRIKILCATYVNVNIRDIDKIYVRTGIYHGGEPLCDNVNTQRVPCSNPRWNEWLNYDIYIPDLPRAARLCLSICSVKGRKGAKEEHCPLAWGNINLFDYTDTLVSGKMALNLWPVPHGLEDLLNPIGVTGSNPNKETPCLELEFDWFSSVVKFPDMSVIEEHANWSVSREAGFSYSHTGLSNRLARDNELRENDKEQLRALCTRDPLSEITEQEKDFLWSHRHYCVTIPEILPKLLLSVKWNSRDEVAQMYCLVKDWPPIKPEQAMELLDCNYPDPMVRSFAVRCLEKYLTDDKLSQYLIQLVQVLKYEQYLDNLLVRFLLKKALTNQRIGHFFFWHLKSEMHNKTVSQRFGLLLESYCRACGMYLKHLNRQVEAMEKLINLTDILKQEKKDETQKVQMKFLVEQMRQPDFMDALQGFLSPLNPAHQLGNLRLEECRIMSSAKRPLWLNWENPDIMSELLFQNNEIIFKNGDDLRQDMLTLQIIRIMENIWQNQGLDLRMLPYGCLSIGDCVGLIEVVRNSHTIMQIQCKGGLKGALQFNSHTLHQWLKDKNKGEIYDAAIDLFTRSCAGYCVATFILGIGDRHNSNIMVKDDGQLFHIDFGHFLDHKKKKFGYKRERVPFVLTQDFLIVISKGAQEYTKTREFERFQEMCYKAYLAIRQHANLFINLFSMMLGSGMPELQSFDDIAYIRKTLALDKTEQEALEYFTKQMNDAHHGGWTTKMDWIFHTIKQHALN
Chain of PI3-Kα (P26450 whole entry partner, the tested form may be a part): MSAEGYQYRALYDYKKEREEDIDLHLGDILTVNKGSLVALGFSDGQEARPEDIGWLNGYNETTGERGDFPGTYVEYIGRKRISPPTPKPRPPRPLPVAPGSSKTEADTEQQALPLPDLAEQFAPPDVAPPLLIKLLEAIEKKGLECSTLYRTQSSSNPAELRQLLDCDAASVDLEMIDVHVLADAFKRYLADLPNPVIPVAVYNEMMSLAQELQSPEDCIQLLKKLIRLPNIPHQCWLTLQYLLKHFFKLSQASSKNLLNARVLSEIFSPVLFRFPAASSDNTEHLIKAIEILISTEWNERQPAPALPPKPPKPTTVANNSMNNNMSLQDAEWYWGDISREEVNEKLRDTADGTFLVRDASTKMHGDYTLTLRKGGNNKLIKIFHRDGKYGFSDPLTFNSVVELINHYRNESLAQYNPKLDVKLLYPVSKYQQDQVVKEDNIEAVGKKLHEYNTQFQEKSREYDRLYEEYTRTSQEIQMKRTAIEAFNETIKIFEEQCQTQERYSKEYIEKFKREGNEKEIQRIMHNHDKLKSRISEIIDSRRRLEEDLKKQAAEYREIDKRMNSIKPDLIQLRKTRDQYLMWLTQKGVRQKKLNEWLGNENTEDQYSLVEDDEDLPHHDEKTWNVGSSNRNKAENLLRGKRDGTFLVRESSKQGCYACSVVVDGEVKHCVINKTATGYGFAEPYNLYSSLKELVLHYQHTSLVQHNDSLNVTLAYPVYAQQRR

SMILES	IC50 [1] [nM]	IC50 [2] [nM]
CCNc1nc(C)c2cc(-c3cnc(OC)nc3)c(=O)n([C@H]3CC[C@H](O)CC3)c2n1 [Compound 277, 2-(ethylamino)-8-(trans-4-hydroxycyclohexyl)-6-(2-methoxypyrimidin-5-yl)-4-methylpyrido[2,3-d]pyrimidin-7(8H)-one]	1.59	20.6
CCn1nccc1NC(=O)c1cc2c(C)nc(N)nc2n([C@H]2CC[C@H](O)CC2)c1=O [Compound 278, 2-amino-N-(1-ethyl-1H-pyrazol-5-yl)-8-(trans-4-hydroxycyclohexyl)-4-methyl-7-oxo-78-dihydropyrido[23-d]pyrimidine-6-carboxamide]	1.3	50.5
Cc1nc(N)nc2c1cc(C(=O)Nc1ccn[nH]1)c(=O)n2C(C)C [Compound 279, 2-amino-8-isopropyl-4-methyl-7-oxo-N-1H-pyrazol-5-yl-7,8-dihydropyrido[2,3-d]pyrimidine-6-carboxamide]	2.9	30.5
CCn1cc(CNC(=O)c2cc3c(C)nc(NC)nc3n(C3CCCC3)c2=O)cn1 [Compound 281, 8-cyclopentyl-N-[(1-ethyl-1H-pyrazol-4-yl)methyl]-4-methyl-2-(methylamino)-7-oxo-7,8-dihydropyrido[2,3-d]pyrimidine-6-carboxamide]	1200	> 10000
CNc1nc(C)c2cc(C(=O)Nc3ccon3)c(=O)n(C3CCCC3)c2n1 [Compound 283, 8-cyclopentyl-N-isoxazol-3-yl-4-methyl-2-(methylamino)-7-oxo-7,8-dihydropyrido[2,3-d]pyrimidine-6-carboxamide]	5	72.2
COc1ncc(-c2cc3c(C)nc(N)nc3n([C@H]3CC[C@H](OCCO)CC3)c2=O)cn1 [Compound 287, 2-amino-8-[trans-4-(2-hydroxyethoxy)cyclohexyl]-6-(2-methoxypyrimidin-5-yl)-4-methylpyrido[2,3-d]pyrimidin-7(8H)-one]	2.2	38.9
COc1ncc(-c2cc3c(C)nc(N)nc3n([C@H]3CC[C@H](OCCO)CC3)c2=O)cc1F [Compound 288, 2-amino-6-(5-fluoro-6-methoxypyridin-3-yl)-8-[trans-4-(2-hydroxyethoxy)cyclohexyl]-4-methylpyrido[2,3-d]pyrimidin-7(8H)-one]	1.44	5.3
Cc1nc(N)nc2c1cc(Br)c(=O)n2[C@H]1CC[C@H](OCCO)CC1 [Compound 291, 2-amino-6-bromo-8-[trans-4-(2-hydroxyethoxy)cyclohexyl]-4-methylpyrido[2,3-d]pyrimidin-7(8H)-one]	55.2	96.5
Cc1nc(N)nc2c1cc(-c1ccc(N(C)C)nc1)c(=O)n2[C@H]1CC[C@H](OCCO)CC1 [Compound 292]	9.28	12.1
COc1ncc(-c2cc3c(C)nc(N)nc3n([C@H]3CC[C@@H](OCCO)CC3)c2=O)cn1 [Compound 293, 2-amino-8-[cis-4-(2-hydroxyethoxy)cyclohexyl]-6-(2-methoxypyrimidin-5-yl)-4-methylpyrido[2,3-d]pyrimidin-7(8H)-one]	5.31	15.3
Cc1nc(N)nc2c1cc(-c1cn[nH]c1)c(=O)n2[C@H]1CC[C@@H](OCCO)CC1 [Compound 296, 2-amino-8-[cis-4-(2-hydroxyethoxy)cyclohexyl]-4-methyl-6-(1H-pyrazol-4-yl)pyrido[2,3-d]pyrimidin-7(8H)-one]	29.7	9.1
COc1ccc(-c2cc3c(C)nc(N)nc3n([C@H]3CC[C@H](OC[C@@H](O)CO)CC3)c2=O)cn1 [Compound 300, 2-amino-8-(trans-4-{[(2S)-2,3-dihydroxypropyl]oxy}cyclohexyl)-6-(6-methoxypyridin-3-yl)-4-methylpyrido[2,3-d]pyrimidin-7(8H)-one]	6.82	13.2
Cc1nc(N)nc2c1cc(-c1cnn(C)c1)c(=O)n2[C@H]1CC[C@H](OCCO)CC1 [Compound 302, 2-amino-8-[trans-4-(2-hydroxyethoxy)cyclohexyl]-4-methyl-6-(1-methyl-1H-pyrazol-4-yl)pyrido[2,3-d]pyrimidin-7(8H)-one]	22.3	226
COc1ccc(-c2cc3c(C)nc(N)nc3n([C@H]3C[C@H](OCCO)C3)c2=O)cn1 [Compound 314, 2-amino-8-(trans-3-(2-hydroxyethoxy)cyclobutyl]-6-(6-methoxypyridin-3-yl)-4-methylpyrido[2,3-d]pyrimidin-7(8H)-one]	10.2	50.8
COc1ncc(-c2cc3c(C)nc(N)nc3n([C@H]3C[C@H](OCCO)C3)c2=O)cc1F [Compound 315, 2-amino-6-(5-fluoro-6-methoxypyridin-3-yl)-8-[trans-3-(2-hydroxyethoxy)cyclobutyl]-4-methylpyrido[2,3-d]pyrimidin-7(8H)-one]	3.11	14.6
COc1ncc(-c2cc3c(C)nc(N)nc3n([C@H]3C[C@H](OCCO)C3)c2=O)cn1 [Compound 316, 2-amino-8-[trans-3-(2-hydroxyethoxy)cyclobutyl]-6-(2-methoxypyrimidin-5-yl)-4-methylpyrido[2,3-d]pyrimidin-7(8H)-one]	6.65	93.5
COc1ccc(-c2cc3c(C)nc(N)nc3n([C@H]3C[C@H](OCC(N)=O)C3)c2=O)cn1 [Compound 317, 2-({trans-3-[2-amino-6-(6-methoxypyridin-3-yl)-4-methyl-7-oxopyrido[2,3-d]pyrimidin-8(7H)-yl]cyclobutyl}oxy)acetamide]	4.72	33.5
COc1ncc(-c2cc3c(C)nc(N)nc3n([C@H]3C[C@H](OCC(N)=O)C3)c2=O)cc1F [Compound 318, 2-({trans-3-(2-amino-6-(5-fluoro-6-methoxypyridin-3-yl)-4-methyl-7-oxopyrido[2,3-yl]pyrimidin-8(7H)-yl)cyclobutyl}oxy)acetamide]	2.14	12.6
COc1ncc(-c2cc3c(C)nc(N)nc3n([C@H]3C[C@H](OCC(N)=O)C3)c2=O)cn1 [Compound 319, 2-({trans-3-(2-amino-6-(2-methoxypyrimidin-5-yl)-4-methyl-7-oxopyrido[2,3-d]pyrimidin-8(7H)-yl]cydobutyl}oxy)acetamide]	5.91	110

— patent US8633204B2 (Pfizer Inc., priority 2006, dated 2014)
